Assays:
[1] = Chemical stability (thermal, alkaline and acidic media); type: physicochemical
[2] = findings of SCCS; cited from earlier work

| Compound | Stability in alkaline media [1] | Thermal stability [1] | Degradation in alkaline conditions ([1]; above pH 10, ambient temperature) | Degradation at elevated temperatures ([1]; above pH 10 or below about pH 4, elevated temperatures, compared with ambient) | Degradation in acidic conditions ([1]; below about pH 4, ambient temperature) | Allergenicity [2] |
| --- | --- | --- | --- | --- | --- | --- |
| CC(=CCCC=O)CCCC(C)(C)O [(I), 5,9-dimethyl-9-hydroxy-decen-4-al] | unstable in alkaline media | thermally unstable | rapidly degraded | degradation proceeds even more rapidly | rapidly degraded |  |
| CC(C)(O)CCCC1=CCC(C=O)CC1 (stereo not drawn) [cyclohexal, 4(4-hydroxy-4-methylpentyl) 3-cyclohexene carboxaldehyde] |  |  |  |  |  | allergenic concerns |
